Results: paper PMC4569708, “Synergistic activation of human pregnane X receptor by binary cocktails of pharmaceutical and environmental compounds” (Nature Communications, 2015)

T1: PXR LBD (Homo sapiens, UniProt O75469)
T1 construct: Purified PXR(130-434)-SRC-1 was dialysed overnight; His6 (N); made in house; host or cells: E. coli BL21(DE3)
T1 sequence (O75469 with tags, fused parts or gaps limits assumed): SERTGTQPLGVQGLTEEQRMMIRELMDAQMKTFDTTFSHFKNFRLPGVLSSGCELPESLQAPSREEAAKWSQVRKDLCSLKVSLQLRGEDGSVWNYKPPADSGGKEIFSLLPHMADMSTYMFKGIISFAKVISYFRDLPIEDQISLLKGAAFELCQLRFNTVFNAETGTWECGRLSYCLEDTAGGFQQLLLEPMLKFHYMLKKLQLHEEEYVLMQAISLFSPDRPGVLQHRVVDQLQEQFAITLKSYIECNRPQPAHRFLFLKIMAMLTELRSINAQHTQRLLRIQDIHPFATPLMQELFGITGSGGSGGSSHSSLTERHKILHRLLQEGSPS

T2: PXR (Homo sapiens, UniProt O75469)
T2 sequence (O75469 107-434): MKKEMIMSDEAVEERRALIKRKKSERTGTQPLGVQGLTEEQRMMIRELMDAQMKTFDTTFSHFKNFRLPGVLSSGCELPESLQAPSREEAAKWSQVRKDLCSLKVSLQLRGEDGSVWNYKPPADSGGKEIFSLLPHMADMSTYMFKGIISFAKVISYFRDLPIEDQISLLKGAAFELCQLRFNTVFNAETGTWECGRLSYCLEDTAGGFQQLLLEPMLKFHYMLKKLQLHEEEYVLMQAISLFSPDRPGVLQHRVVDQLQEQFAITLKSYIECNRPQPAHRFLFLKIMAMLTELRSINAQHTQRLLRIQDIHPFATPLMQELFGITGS

T3: fluorescein-labelled NR interaction domain (NID) of SRC-1 (residues 570-780) (UniProt Q15788 570-780, fluorescein at the C-terminus (cys-fluor added on intein cleavage))
T3 chain: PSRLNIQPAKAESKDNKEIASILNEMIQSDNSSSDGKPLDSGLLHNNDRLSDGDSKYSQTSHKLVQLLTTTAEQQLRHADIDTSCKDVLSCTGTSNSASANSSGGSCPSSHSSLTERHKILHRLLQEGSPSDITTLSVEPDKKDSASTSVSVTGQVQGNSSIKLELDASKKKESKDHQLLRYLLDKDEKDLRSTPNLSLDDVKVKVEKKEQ

B1: PXR/RXR LBD heterodimer (complex)
chain 1: SERTGTQPLGVQGLTEEQRMMIRELMDAQMKTFDTTFSHFKNFRLPGVLSSGCELPESLQAPSREEAAKWSQVRKDLCSLKVSLQLRGEDGSVWNYKPPADSGGKEIFSLLPHMADMSTYMFKGIISFAKVISYFRDLPIEDQISLLKGAAFELCQLRFNTVFNAETGTWECGRLSYCLEDTAGGFQQLLLEPMLKFHYMLKKLQLHEEEYVLMQAISLFSPDRPGVLQHRVVDQLQEQFAITLKSYIECNRPQPAHRFLFLKIMAMLTELRSINAQHTQRLLRIQDIHPFATPLMQELFGITGS
chain 2: TSSANEDMPVERILEAELAVEPKTETYVEANMGLNPSSPNDPVTNICQAADKQLFTLVEWAKRIPHFSELPLDDQVILLRAGWNELLIASFSHRSIAVKDGILLATGLHVHRNSAHSAGVGAIFDRVLTELVSKMRDMQMDKTELGCLRAIVLFNPDSKGLSNPAEVEALREKVYASLEAYCKHKYPEQPGRFAKLLLRLPALRSIGLKCLEHLFFFKLIGDTPIDTFLMEMLEAPHQMT

Assays:
PXR LBD = biological target: T1, PXR LBD; experiment: Non-denaturing ESI-MS of ligand binding
Method: Figure 4 Simultaneous binding of EE2 and TNC to PXR. Mass spectrometry analysis. Non-denaturing ESI-MS was used to characterize PXR LBD (10 μM) in (a) the unliganded form or in the presence of (b) EE2 (20 μM), (c) TNC (20 μM), or (d) a mixture of EE2 (20 μM) and TNC (20 μM). *, acetate adducts; $, fortuitous binders 254-324 Da; , fortuitous binder 254 Da; #, non-specific EE2 adducts. TEXT PRINTED IN THE PICTURE: (b) no label printed: 296.4 Da | (c) no label printed: 444.2 Da | (d) no label printed: 740.6 Da DOUBTS OF THE COPYIST ABOUT THIS PICTURE: Panels b, c and d: the drawn structures have no label of their own. The masses in brackets are printed with no measure word and are taken as molecular masses. / Panel d: 740.6 Da is printed under two drawn structures joined by '+', so it belongs to the pair, not to a single substance. / The peak labels of the mass spectra were left out as spectrum annotations of the protein and its complexes: PXR 38,212.5 Da, Theoretical mass 38,217.7 Da, Δ 297 Da, Δ 445 Da and Δ 740 Da.
Mass spectrometry experiments were carried out on an electrospray time-of-flight mass spectrometer (LCT, Waters) equipped with an automated chip-based nanoESI device (Triversa Nanomate, Advion Biosciences). External calibration was done in the positive ion mode over the mass range m/z 500–5,000 using the multiply charged ions produced by 0.5 μM horse heart myoglobin solution diluted in water/acetonitrile 50/50 mixture acidified with 0.5% (v/v) formic acid. Purified PXR(130-434)-SRC1 was buffer exchanged against 50 mM ammonium acetate (NH4Ac), pH 8.0 using NAP5 desalting columns (illustra NAP-5 Columns, GE Healthcare Life Sciences). Protein concentration was determined spectrophotometrically (ɛ280 nm=26,210 l mol^−1 cm^−1). […] Protein concentration was set to 10 μM and different compound concentrations ranging from 20 to 80 μM were tested. Incubations lasted 5 min at 18 °C. Mass spectra were recorded using low cone voltage (Vc, 20 V) and elevated interface pressure (Pi, 5 mbar).

PXR [1] = biological target: T2, PXR; experiment: Transactivation assay (dose-response), HG5LN GAL4-PXR-LBD reporter cells; details: summary of cell-based assays
Method: Compounds to be tested were added 24 h later, and cells were incubated at 37 °C for 16 h. […] EC50 values were measured using GraphPad Prism (GraphPad Software Inc.).

PXR [2] = biological target: T2, PXR; experiment: Medium-throughput screening, HG5LN GAL4-PXR-LBD reporter cell line (HeLa); details: HG5LN GAL4-PXR reporter cells; 3 µM SR12813 = 100% activation; determined prior to the screening
Excerpt: Using medium-throughput ligand screening and a mammalian (HeLa) cell-based activation assay (HG5LN GAL4-PXR-LBD reporter cell line)[14][15], we monitored the agonistic potential of 40 chemicals either alone or in binary mixtures (Supplementary Table 1). […] We next examined the effect of TNC, EE2, and their combination in human liver (HepG2) and colon (LS174T) carcinoma cell lines containing the full-length PXR and the CYP3A4-XREM luciferase reporter plasmids.
LS174T stable human PXR transfectant (LS-PXR2) and the corresponding control cells (LS-CTRL), HEPG2-PXR and HG5LN GAL4-PXR reporter cell lines were previously described. […] HEPG2-PXR was obtained after stable transfection of the same PXR expressing plasmid and the XREM-CYP3A4 pGL3b reporter plasmid. […] Finally, LS174T-PXR reporter cell line was established by stable transfection of the CYP3A4-luciferase-hygromycine plasmid in the LS-PXR2 cell line. All cell lines were grown in DMEM medium (Invitrogen) supplemented with 10% fetal calf serum, L-glutamine, and antibiotics (Invitrogen).
HG5LN GAL4-PXR reporter cell lines (100 μl) were seeded at a density of 25,000 cells per well in 96-well white opaque tissue culture plates (Greiner CellStar). […] Then the ligand to be tested in combination with the different ligands was added (50 μl). Cells were incubated at 37 °C for 16 h. At the end of the incubation period, culture medium was replaced with medium containing 3.10^−4 M luciferin. Luciferase activity was measured for 2 s in intact living cells using a plate reader (PerkinElmer Luminometer).
Supplementary Table 1 | Compounds used for screening
#For each ligand, the concentration used was determined prior to the screening experiment. It represents the dose at which the
synthetized in the laboratory4. **Compounds purchased from Tocris Biosciences. ***Compounds purchased by Sigma
Aldrich.****Gift from Sanofi Aventis. All compound stock solutions were prepared at 10 mM in DMSO.

[3] = biological target: T3, fluorescein-labelled NR interaction …; experiment: FP; TNC
[4] = biological target: T3, fluorescein-labelled NR interaction …; experiment: FP; apo (no ligand)
[5] = biological target: T3, fluorescein-labelled NR interaction …; experiment: FP; EE2
[6] = biological target: T3, fluorescein-labelled NR interaction …; experiment: FP; SR12813
[7] = biological target: T3, fluorescein-labelled NR interaction …; experiment: FP; TNC+EE2

| Molecule | Concentration: dose at which the compound alone induces ≈30% of the luciferase expression obtained with 3 µM SR12813 (PXR [2]) [nM] | other results |
| --- | --- | --- |
| C#C[C@]1(O)CC[C@H]2[C@@H]3CCc4cc(O)ccc4[C@H]3CC[C@@]21C [EE2, 17α-ethinylestradiol, reference compound] |  | Complex detected (PXR LBD; PXR 10 μM, 2 molar equivalent excess of compound (20 μM)): ~70%; Range of affinity for PXR (PXR LBD; native ESI-MS): low micromolar range; PXR agonism, cell-based assays as a whole (PXR [1]): poor PXR agonists |
| CCCCOC(=O)c1ccccc1C(=O)OCc1ccccc1 [Benzyl butyl phthalate] | 1000 |  |
| Clc1ccccc1C(c1ccccc1)(c1ccccc1)n1ccnc1 [Clotrimazol, reference compound] | 300 |  |
| CC1(C)C(C=C(Cl)Cl)C1C(=O)OC(C#N)c1cccc(Oc2ccccc2)c1 (stereo not shown) [Cypermethrine] | 3000 |  |
| CC(=O)O[C@H]1C(=O)[C@@]2(C)[C@H]([C@H](OC(=O)c3ccccc3)[C@]3(O)C[C@H](OC(=O)[C@H](O)[C@@H](NC(=O)c4ccccc4)c4ccccc4)C(C)=C1C3(C)C)[C@]1(OC(C)=O)CO[C@@H]1C[C@@H]2O [TAXOL, reference compound] | 30 |  |
| Cc1cc(C(C)(C)C)ccc1O [4-tert-butyl-2-methylphenol] | 1000 |  |
| Cc1ccc(/C=C2/C(=O)C3(C)CCC2C3(C)C)cc1 (stereo not shown) [4-methylbenzylidene camphor] | 1000 |  |
| Clc1cnc(Oc2ccc(Oc3ncc(Cl)cc3Cl)cc2)c(Cl)c1 [TCPOBOP, reference compound] | 1000 |  |
| Clc1ccc(C(c2ccc(Cl)cc2)C(Cl)(Cl)Cl)cc1 [4,4’DDT] | 3000 |  |
| CO[C@H]1/C=C/O[C@@]2(C)Oc3c(C)c(O)c4c(O)c(c(/C=N/N5CCN(C)CC5)c(O)c4c3C2=O)NC(=O)/C(C)=C\C=C\[C@H](C)[C@H](O)[C@@H](C)[C@@H](O)[C@@H](C)[C@H](OC(C)=O)[C@@H]1C [Rifampicin, reference compound] | 300 |  |
| N#Cc1nn(-c2c(Cl)cc(C(F)(F)F)cc2Cl)c(N)c1S(=O)(=O)C(F)(F)F [Fipronil sulfone] | 3000 |  |
| -zearalenol | 300 |  |
| -zearalanol | 1000 |  |
| Clc1ccc(C(c2ccccc2Cl)C(Cl)(Cl)Cl)cc1 (stereo not shown) [2,4’DDT] | 3000 |  |
| C[C@H]1CCCC(=O)CCC/C=C/c2cc(O)cc(O)c2C(=O)O1 [Zearalenone] | 1000 |  |
| B1 |  | Kd [3]: 450 nM; Kd [4]: 368 nM; Kd [5]: 272 nM; Kd [6]: 93 nM; Kd [7]: 84.5 nM |
